# Target: T1, CXCR2 (Homo sapiens, UniProt P25025)
# T1 construct: expressed in transfected cells
# T1 sequence (P25025 1-360): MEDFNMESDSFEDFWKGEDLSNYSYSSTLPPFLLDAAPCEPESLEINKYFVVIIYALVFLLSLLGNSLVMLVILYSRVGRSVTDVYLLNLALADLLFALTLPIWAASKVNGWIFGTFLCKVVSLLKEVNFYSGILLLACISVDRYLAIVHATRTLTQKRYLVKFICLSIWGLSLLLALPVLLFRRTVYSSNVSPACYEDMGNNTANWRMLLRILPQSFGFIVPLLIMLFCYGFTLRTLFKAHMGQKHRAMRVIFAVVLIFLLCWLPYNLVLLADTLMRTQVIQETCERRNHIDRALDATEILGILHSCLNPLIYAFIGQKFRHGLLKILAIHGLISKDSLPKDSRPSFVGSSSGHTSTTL
# Experiment: NanoBRET β-arrestin1 recruitment inhibition assay (NanoLux) in HEK293A cells
# Type: cell-based
# Conditions: CXCL1 at EC80; mean, n = 3; read-out: IC50 βarr1
# Description: Cells were trypsinized and resuspended at 3 × 10^5 cell/mL in the growth medium, whereafter they were incubated for 2 hours at RT. Cells were transfected in suspension using FuGENE® HD Transfection Reagent at a 3:1 reagent to DNA ratio in Opti-MEMTM I Reduced-Serum Medium, with the final DNA concentration of 1 μg/μL. The transfection mixture was incubated for 10 min at RT before adding it to the cell suspension. Transfected cells were seeded at 3.0 × 10^4 cells/well in a white, clear, flat-bottom 96-well plate coated with 100 μg/mL poly-D-lysin ([…], Sigma Aldrich) and incubated for 48 h at 37°C and 5% CO2. HEK293A cells were transiently co-transfected with plasmids encoding β-arrestin1 protein tagged with NLuc (donor) and CXCR2 protein tagged with mNeonGreen (mNG) acceptor in a 1:10 donor to acceptor ratio, as described previously ([Luís et al., 2022]). All subsequent steps are identical to those in “NanoBRET-based G protein activation inhibition assay,” which are described above. Measurements were acquired using a 440- to 480-nm donor emission filter (#0200-6179, Molecular Devices) and a 515- to 575-nm acceptor emission filter (#0200-6203, Molecular Devices) BRET ratios were extracted from ScreenWorks software (Molecular Devices) and represent the ratio between the acceptor emission of […]2 or mNG (G protein or β-arrestin recruitment, respectively) and NLuc donor emission. The basal BRET ratio was defined as the average BRET ratio of the five consecutive readings preceding ligand addition. Changes in BRET values post ligand administration (ΔBRET) were calculated for each well as a percentage difference to the previously defined basal BRET ratio. Average ΔBRET values were baseline corrected by subtracting the average negative control BRET ratio (unstimulated condition). […] AUCs were normalized to the positive control (stimulated condition); whereafter, dose-response curves were fitted to log (inhibitor) vs response (three parameters) in GraphPad 10.2.0 (GraphPad Software). […] Calculation 1: calculation of the BRET signal. • 1. […] NC correctedΔBRET=Δ[…]. • 4. a. Neg AUC of NC correctedΔBRET=Gα activation read out. b. Pos AUC of NC correctedΔBRET=β-arrestin recruitment.
row,IC50 [µM],Compound
1,2.85 ± 0.68,CC(CO)Nc1nc(SCc2cccc(F)c2F)nc2ncsc12 (stereo not shown) [MVH-22]

# Same assay, conditions: CXCL1 at EC80; normalized to Imax of navarixin = 100%; n = 3
row,Imax βarr1 (maximum observed inhibitory effect) [%],Compound
1,100,CC(CO)Nc1nc(SCc2cccc(F)c2F)nc2ncsc12 (stereo not shown) [MVH-22]

# Same assay, conditions: CXCL2 at EC80; mean, n = 3; read-out: IC50 βarr1
row,IC50 [µM],Compound
1,1.5 ± 0.18,CC(CO)Nc1nc(SCc2cccc(F)c2F)nc2ncsc12 (stereo not shown) [MVH-22]

# Same assay, conditions: CXCL2 at EC80; normalized to Imax of navarixin = 100%; n = 3
row,Imax βarr1 (maximum observed inhibitory effect) [%],Compound
1,100,CC(CO)Nc1nc(SCc2cccc(F)c2F)nc2ncsc12 (stereo not shown) [MVH-22]

# Same assay, conditions: CXCL3 at EC80; mean, n = 3; read-out: IC50 βarr1
row,IC50 [µM],Compound
1,3.44 ± 0.75,CC(CO)Nc1nc(SCc2cccc(F)c2F)nc2ncsc12 (stereo not shown) [MVH-22]

# Same assay, conditions: CXCL3 at EC80; normalized to Imax of navarixin = 100%; n = 3
row,Imax βarr1 (maximum observed inhibitory effect) [%],Compound
1,100,CC(CO)Nc1nc(SCc2cccc(F)c2F)nc2ncsc12 (stereo not shown) [MVH-22]

# Same assay, conditions: CXCL5 at EC80; mean, n = 3; read-out: IC50 βarr1
row,IC50 [µM],Compound
1,1.96 ± 0.53,CC(CO)Nc1nc(SCc2cccc(F)c2F)nc2ncsc12 (stereo not shown) [MVH-22]

# Same assay, conditions: CXCL5 at EC80; normalized to Imax of navarixin = 100%; n = 3
row,Imax βarr1 (maximum observed inhibitory effect) [%],Compound
1,100,CC(CO)Nc1nc(SCc2cccc(F)c2F)nc2ncsc12 (stereo not shown) [MVH-22]

# Same assay, conditions: CXCL6 at EC80; mean, n = 3; read-out: IC50 βarr1
row,IC50 [µM],Compound
1,1.47 ± 0.2,CC(CO)Nc1nc(SCc2cccc(F)c2F)nc2ncsc12 (stereo not shown) [MVH-22]

# Same assay, conditions: CXCL6 at EC80; normalized to Imax of navarixin = 100%; n = 3
row,Imax βarr1 (maximum observed inhibitory effect) [%],Compound
1,100,CC(CO)Nc1nc(SCc2cccc(F)c2F)nc2ncsc12 (stereo not shown) [MVH-22]

# Same assay, conditions: CXCL7 at EC80; mean, n = 3; read-out: IC50 βarr1
row,IC50 [µM],Compound
1,0.5 ± 0.07,CC(CO)Nc1nc(SCc2cccc(F)c2F)nc2ncsc12 (stereo not shown) [MVH-22]

# Same assay, conditions: CXCL7 at EC80; normalized to Imax of navarixin = 100%; n = 3
row,Imax βarr1 (maximum observed inhibitory effect) [%],Compound
1,97.6 ± 3.45,CC(CO)Nc1nc(SCc2cccc(F)c2F)nc2ncsc12 (stereo not shown) [MVH-22]

# Same assay, conditions: CXCL8 at EC80; mean, n = 3; read-out: IC50 βarr1
row,IC50 [µM],Compound
1,2.66 ± 0.3,CC(CO)Nc1nc(SCc2cccc(F)c2F)nc2ncsc12 (stereo not shown) [MVH-22]

# Same assay, conditions: CXCL8 at EC80; normalized to Imax of navarixin = 100%; n = 3
row,Imax βarr1 (maximum observed inhibitory effect) [%],Compound
1,100,CC(CO)Nc1nc(SCc2cccc(F)c2F)nc2ncsc12 (stereo not shown) [MVH-22]

# Target: T1, CXCR2
# Experiment: NanoBRET-based G protein activation inhibition assay (REGA-SIGN Gαi1 dissociation) in HEK293A.CXCR2 cells
# Type: cell-based
# Conditions: CXCL1 at EC80; mean, n = 3
# Description: Cells were trypsinized and resuspended at 3 × 10^5 cell/mL in the growth medium, whereafter they were incubated for 2 hours at RT. Cells were transfected in suspension using FuGENE® HD Transfection Reagent at a 3:1 reagent to DNA ratio in Opti-MEMTM I Reduced-Serum Medium, with the final DNA concentration of 1 μg/μL. The transfection mixture was incubated for 10 min at RT before adding it to the cell suspension. Transfected cells were seeded at 3.0 × 10^4 cells/well in a white, clear, flat-bottom 96-well plate coated with 100 μg/mL poly-D-lysin ([…], Sigma Aldrich) and incubated for 48 h at 37°C and 5% CO2. […] (2023)]. Following the 48-h incubation period, cells were washed with the assay buffer. Compounds were serially diluted in 1:500 Nano-Glo® Vivazine^TM working solution (#N2581, Promega), and 90 μL of compound/Vivazine mix was added, followed by incubation for 45 min at 37°C and 5% CO2. Plates were transferred to the FLIPR Penta system (Molecular Devices) at 37°C, and all steps onward are automated and performed by the FLIPR Penta system. After a 10-min equilibration period, the baseline BRET signal was determined by five consecutive reads followed by automatic administration of 10 μL of 10× ligand (Table 1) to the cell plate. Changes in the BRET signal was measured for 10 min, with each read spaced by 2.5 s. […] BRET ratios were extracted from ScreenWorks software (Molecular Devices) and represent the ratio between the acceptor emission of […]2 or mNG (G protein or β-arrestin recruitment, respectively) and NLuc donor emission. The basal BRET ratio was defined as the average BRET ratio of the five consecutive readings preceding ligand addition. Changes in BRET values post ligand administration (ΔBRET) were calculated for each well as a percentage difference to the previously defined basal BRET ratio. Average ΔBRET values were baseline corrected by subtracting the average negative control BRET ratio (unstimulated condition). […] AUCs were normalized to the positive control (stimulated condition); whereafter, dose-response curves were fitted to log (inhibitor) vs response (three parameters) in GraphPad 10.2.0 (GraphPad Software). […] Calculation 1: calculation of the BRET signal. • 1. […] NC correctedΔBRET=Δ[…]. • 4. a. Neg AUC of NC correctedΔBRET=Gα activation read out. b. Pos AUC of NC correctedΔBRET=β-arrestin recruitment.
row,IC50 [µM],Compound
1,> 15,CC(CO)Nc1nc(SCc2cccc(F)c2F)nc2ncsc12 (stereo not shown) [MVH-22]

# Same assay, conditions: CXCL1 at EC80; normalized to Imax of navarixin = 100%; n = 3
row,Imax Gαi1 (maximum observed inhibitory effect) [%],Compound
1,<50,CC(CO)Nc1nc(SCc2cccc(F)c2F)nc2ncsc12 (stereo not shown) [MVH-22]

# Same assay, conditions: CXCL2 at EC80; mean, n = 3
row,IC50 [µM],Compound
1,> 15,CC(CO)Nc1nc(SCc2cccc(F)c2F)nc2ncsc12 (stereo not shown) [MVH-22]

# Same assay, conditions: CXCL2 at EC80; normalized to Imax of navarixin = 100%; n = 3
row,Imax Gαi1 (maximum observed inhibitory effect) [%],Compound
1,<50,CC(CO)Nc1nc(SCc2cccc(F)c2F)nc2ncsc12 (stereo not shown) [MVH-22]

# Same assay, conditions: CXCL3 at EC80; mean, n = 3
row,IC50 [µM],Compound
1,> 15,CC(CO)Nc1nc(SCc2cccc(F)c2F)nc2ncsc12 (stereo not shown) [MVH-22]

# Same assay, conditions: CXCL3 at EC80; normalized to Imax of navarixin = 100%; n = 3
row,Imax Gαi1 (maximum observed inhibitory effect) [%],Compound
1,<50,CC(CO)Nc1nc(SCc2cccc(F)c2F)nc2ncsc12 (stereo not shown) [MVH-22]

# Same assay, conditions: CXCL5 at EC80; mean, n = 3
row,IC50 [µM],Compound
1,> 15,CC(CO)Nc1nc(SCc2cccc(F)c2F)nc2ncsc12 (stereo not shown) [MVH-22]

# Same assay, conditions: CXCL5 at EC80; normalized to Imax of navarixin = 100%; n = 3
row,Imax Gαi1 (maximum observed inhibitory effect) [%],Compound
1,<50,CC(CO)Nc1nc(SCc2cccc(F)c2F)nc2ncsc12 (stereo not shown) [MVH-22]

# Same assay, conditions: CXCL6 at EC80; mean, n = 3
row,IC50 [µM],Compound
1,> 15,CC(CO)Nc1nc(SCc2cccc(F)c2F)nc2ncsc12 (stereo not shown) [MVH-22]

# Same assay, conditions: CXCL6 at EC80; normalized to Imax of navarixin = 100%; n = 3
row,Imax Gαi1 (maximum observed inhibitory effect) [%],Compound
1,<50,CC(CO)Nc1nc(SCc2cccc(F)c2F)nc2ncsc12 (stereo not shown) [MVH-22]

# Same assay, conditions: CXCL7 at EC80; mean, n = 3
row,IC50 [µM],Compound
1,> 15,CC(CO)Nc1nc(SCc2cccc(F)c2F)nc2ncsc12 (stereo not shown) [MVH-22]

# Same assay, conditions: CXCL7 at EC80; normalized to Imax of navarixin = 100%; n = 3
row,Imax Gαi1 (maximum observed inhibitory effect) [%],Compound
1,<50,CC(CO)Nc1nc(SCc2cccc(F)c2F)nc2ncsc12 (stereo not shown) [MVH-22]

# Same assay, conditions: CXCL8 at EC80; mean, n = 3
row,IC50 [µM],Compound
1,> 15,CC(CO)Nc1nc(SCc2cccc(F)c2F)nc2ncsc12 (stereo not shown) [MVH-22]

# Same assay, conditions: CXCL8 at EC80; normalized to Imax of navarixin = 100%; n = 3
row,Imax Gαi1 (maximum observed inhibitory effect) [%],Compound
1,<50,CC(CO)Nc1nc(SCc2cccc(F)c2F)nc2ncsc12 (stereo not shown) [MVH-22]

# From article PMC12301332, “Biased antagonism of a series of bicyclic CXCR2 intracellular allosteric modulators” (Frontiers in Pharmacology, 2025)
